{
  "source": "patent US20110160167A1",
  "about": "“Steroid Derivatives Acting As Glucocorticosteroid Receptor Agonists” (AstraZeneca AB, priority 2007, published 2011)",
  "target": "T1, recombinant human GR (Homo sapiens, UniProt P04150)",
  "T1 construct": "purchased Panvera/Invitrogen P2812 (kit P2893)",
  "T1 sequence (P04150 1-777)": "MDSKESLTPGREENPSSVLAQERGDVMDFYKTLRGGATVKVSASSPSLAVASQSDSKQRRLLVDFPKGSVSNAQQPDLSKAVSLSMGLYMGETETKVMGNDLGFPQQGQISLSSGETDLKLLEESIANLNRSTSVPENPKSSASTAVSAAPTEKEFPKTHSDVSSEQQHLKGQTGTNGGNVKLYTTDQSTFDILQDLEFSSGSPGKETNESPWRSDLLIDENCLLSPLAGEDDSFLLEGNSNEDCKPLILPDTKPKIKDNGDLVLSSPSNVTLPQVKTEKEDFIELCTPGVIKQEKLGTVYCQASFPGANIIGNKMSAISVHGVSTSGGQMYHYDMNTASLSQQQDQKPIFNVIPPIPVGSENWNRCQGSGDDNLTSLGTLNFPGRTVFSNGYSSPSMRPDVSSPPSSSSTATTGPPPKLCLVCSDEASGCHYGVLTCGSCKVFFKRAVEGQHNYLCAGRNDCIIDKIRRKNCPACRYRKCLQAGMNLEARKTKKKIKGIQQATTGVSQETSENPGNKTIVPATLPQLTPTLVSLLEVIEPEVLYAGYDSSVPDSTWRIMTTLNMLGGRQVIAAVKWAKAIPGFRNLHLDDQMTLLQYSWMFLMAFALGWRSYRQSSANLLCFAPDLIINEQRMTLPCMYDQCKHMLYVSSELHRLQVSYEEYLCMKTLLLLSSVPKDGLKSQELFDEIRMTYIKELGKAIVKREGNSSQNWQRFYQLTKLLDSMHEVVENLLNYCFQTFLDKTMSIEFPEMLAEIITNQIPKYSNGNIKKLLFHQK",
  "experiment": "Human Glucocorticoid Receptor (GR) Assay (fluorescence polarization, Panvera/Invitrogen kit)",
  "details": "GS Red tracer, 2 hours at room temperature, 100% control 10 μM Dexamethasone, read-out: Inhibition of GR binding, IC50",
  "experimental": "Human Glucocorticoid Receptor (GR) Assay The assay is based on a commercial kit from Panvera/Invitrogen (Part number P2893). The assay technology is fluorescence polarization. The kit utilises recombinant human GR (Panvera, Part number P2812), a Fluoromone™ labelled tracer (GS Red, Panvera, Part number P2894) and a Stabilizing Peptide 10× (Panvera, Part number P2815). The GR and Stabilizing Peptide reagents are stored at −70° C. while the GS Red is stored at −20° C. Also included in the kit are 1M DTT (Panvera, Part number P2325, stored at −20° C.) and GR Screening buffer 10× (Panvera, Part number P2814, stored at −70° C. initially but once thawed stored at room temperature). Avoid repeated freeze/thaws for all reagents. The GR Screening buffer 10× comprises 100 mM potassium phosphate, 200 mM sodium molybdate, 1 mM EDTA and 20% DMSO. Test compounds (1 μL) and controls (1 μL) in 100% DMSO were added to black polystyrene 384-well plates (Greiner low volume black flat-bottom, part number 784076). 0% control was 100% DMSO and 100% control was 10 μM Dexamethasone. Background solution (8 μL; assay buffer 10×, Stabilizing Peptide, DTT and ice cold MQ water) was added to the background wells. GS Red solution (7 μL; assay buffer 10×, Stabilizing Peptide, DTT, GS Red and ice cold water) was added to all wells except background wells. GR solution (7 μL; assay buffer 10×, Stabilizing Peptide, DTT, GR and ice cold water) was added to all wells. The plate was sealed and incubated in a dark at room temperature for 2 hours. The plate was read in an Analyst plate reader (LJL Biosystems/Molecular Devices Corporation) or other similar plate reader capable of recording fluorescence polarization (excitation wavelength 530 nm, emission wavelength 590 nm and a dichroic mirror at 561 nm).",
  "note": "pIC50: −log10 of the molar value.",
  "data": [
    {"smiles": "CCC[C@@H]1O[C@@H]2C[C@H]3[C@@H]4CCC5=Cc6c(cnn6-c6ccc(F)cc6)C[C@]5(C)[C@H]4[C@@H](O)C[C@]3(C)[C@]2(C(=O)SCC#N)O1", "note": "[Example 25, (4aR,4bS,5S,6aS,6bS,8R,9aR,10aS,10bS)-6b-(cyanomethylthiocarbonyl)-1-(4-fluorophenyl)-5-hydroxy-4a,6a-dimethyl-8-propyl-4,4a,4b,5,6,6a,9a,10,10a,10b,11,12-dodecahydro[1,3]dioxolo[3′,4′]cyclopenta[1′,2′:5,6]naphtho[1,2-f]indazol]", "values": [
      {"measurement": "pIC50", "result": 7.92}
    ]}
  ]
}
